We go through one molecule from article PMC5085154 (2016).

What is called IC50 is the concentration needed to halve the response being measured.

The test system of assay [1] is HTG21mu (DNA, single strand) GAGTTAGAGTTAGAGTTAGAG
The assay can be described thus: competition dialysis. Conditions: Na+ 100 mM; 10 mM Tris-HCl, pH 7.2, room temperature; 1 μM compound; bound amount in figure.

In assay [2] the test system is HTds (HTC21:HTG21) (DNA, duplex) GGGTTAGGGTTAGGGTTAGGG/CCCTAACCCTAACCCTAACCC
Kind of assay: competition dialysis. The settings on record: Na+ 100 mM; 10 mM Tris-HCl, pH 7.2, room temperature; 1 μM compound; bound amount in figure.

The test system of assay [3] is FPu18T (Pu18) (DNA, G4) AGGGTGGGGAGGGTGGGG
Kind of assay: FRET melting. Conditions: K+ (KCl, concentration not given); pH 7.2; Tm with ligand, "up to", not a shift; compound 2 μM (from mixing volumes), DNA 0.2 μM.

The subject of assay [4] is 2(dT21):dA21 (DNA, triplex) AAAAAAAAAAAAAAAAAAAAA/TTTTTTTTTTTTTTTTTTTTT
Kind of assay: competition dialysis. Conditions: Na+ 100 mM; 10 mM Tris-HCl, pH 7.2, room temperature; 1 μM compound; bound amount in figure.

Assay [5] relates to Pu27 (DNA, G4) TGGGGAGGGTGGGGAGGGTGGGGAAGG
Kind of assay: competition dialysis. The settings on record: Na+ 100 mM; 10 mM Tris-HCl, pH 7.2, room temperature; 1 μM compound; strongest of set; bound amount in figure.

The test system is the same in assay [6]. The assay can be described thus: CD spectroscopy. Conditions: none (salt-free); 10 mM Tris-HCl, pH 7.2; 5 μM DNA; induces parallel G-quadruplex.
The test system is the same in assay [7]. The assay can be described thus: PCR stop assay. The settings on record: apparent; Taq polymerase, Pu27rev reverse primer, 10 cycles, 58°C annealing; gel densitometry.
In assay [8] the test system is HTG21 (DNA, G4) GGGTTAGGGTTAGGGTTAGGG
The assay can be described thus: competition dialysis. Conditions: Na+ 100 mM; 10 mM Tris-HCl, pH 7.2, room temperature; 1 μM compound; bound amount in figure.

In assay [9] the test system is HT-7 (DNA, G4) TTAGGGT. Kind of assay: competition dialysis. The settings on record: Na+ 100 mM; 10 mM Tris-HCl, pH 7.2, room temperature; 1 μM compound; bound amount in figure.
In assay [10] the test system is dA21 (DNA, single strand) AAAAAAAAAAAAAAAAAAAAA
The assay can be described thus: competition dialysis. The settings on record: Na+ 100 mM; 10 mM Tris-HCl, pH 7.2, room temperature; 1 μM compound; bound amount in figure.

Assay [11] relates to dT21 (DNA, single strand) TTTTTTTTTTTTTTTTTTTTT
The assay can be described thus: competition dialysis. Conditions: Na+ 100 mM; 10 mM Tris-HCl, pH 7.2, room temperature; 1 μM compound; bound amount in figure.

For assay [12], the system named is HTC21 (DNA, i motif) CCCTAACCCTAACCCTAACCC
The assay can be described thus: competition dialysis. The settings on record: Na+ 100 mM; 10 mM Tris-HCl, pH 7.2, room temperature; 1 μM compound; bound amount in figure.

The subject of assay [13] is Pu27 (DNA, G4) TGGGGAGGGTGGGGAGGGTGGGGAAGG
Kind of assay: CD titration. Conditions: K+ 100 mM; 10 mM Tris-HCl, pH 7.2; 5 μM DNA; 0-5 mol equiv compound.

For the molecule `CN(C)CCCNCCC(=O)Nc1ccc(C(=O)Nc2cc(Cl)ccc2-c2nc(NCCCN(C)C)c3ccccc3n2)cc1`, the binding result is “weak” in assay [1]; “weak” in assay [2]; “weak” in [4]; “yes” in assay [5]; “yes” in assay [6]; “yes” in [8]. Moreover, the binding result in [9] is recorded as “yes”; in [10] it was “weak”; in assay [11], “weak”; in assay [12], “yes”; in assay [13], “yes”. Further, the Tm in [3] turned out to be 77.5 °C. The IC50 in [7] was determined as 2130 nM.
